Laboratory results as given in publication PMC8157578 (Antioxidants, 2021).
“Also recorded” adds a separate entry of the source.

Key:
[1] = tested on: HeLa cells; assay: Immunofluorescence analysis of intracellular γ-H2AX generation in iron-overloaded HeLa cells (with H2O2); assay type: cell-based, human; conditions: for Inhibition of cellular DNA damage induced by iron overload (with H2O2), in words / Concentration that significantly inhibits cellular DNA damage induced by iron overload (with H2O2): γ-H2AX, HeLa; for Concentration that significantly inhibits cellular DNA damage induced by iron overload (with H2O2): pre-treatment; for Fluorescence intensity of γ-H2AX: Fe(II)-H2O2 alone 2.86±0.64
Procedure: The immortalized human cervical carcinoma HeLa cell line used in this study was obtained from the Cell Resource Center, Peking Union Medical College. The cell line was checked to be free of mycoplasma contamination by PCR and culture. Its species origin was confirmed with PCR. The identity of the cell line was authenticated with STR profiling (FBI, CODIS). HeLa cells were cultured in a DMEM medium (4 mM L-glutamine, 4500 mg/L glucose, and no sodium pyruvate) with 10% fetal bovine serum (FBS) and 1% penicillin–streptomycin at 37 °C under a 5% CO2 atmosphere.
HeLa cells (10^4/well) were loaded by incubation with 20 μM Fe(II) for 2 h at 37 °C. […] For a detailed experimental procedure, please refer to the Supplementary Materials and our previous report. The experiment was repeated three times. The observation of the fluorescence of γ-H2AX in HeLa cells was conducted with a confocal laser scanning microscope (CLSM) (Leica TCS SP). Thirty cells in each group were randomly selected in different microscopic fields for quantitative detection. In detail, each well was equally divided into nine fields and numbered sequentially from the top right corner. Four fields were randomly selected according to a random number table. Thirty cells were then randomly selected from these four fields. All images were analyzed blind regarding exposure parameters, which were coded by one person and read by another who was blinded to the code. The fluorescence intensity of the γ-H2AX signal on selected images was automatically analyzed using the Image-J software. The Statistical Product and Service Solutions (SPSS 21) program was employed to analyze the data through ANOVA. Significant difference from iron-overloaded group are marked with * p < 0.05, ** p < 0.01, and *** p < 0.001.
(§1) 2.1 Immunofluorescence analysis of intracellular γ-H2AX generation in Hela cells
(§2) Fixed cells were permeabilized with 0.25% Triton-X100 in PBS for 10 min and blocked in 10%
(§3) normal goat serum, 0.1% tween 20 in PBS for 1 hour. The cells were incubated with primary
(§4) monoclonal antibody, γ-H2AX (Ser139, 20E3, Rabbit, mAb #9718) (1:600) overnight at 4°C, and then
(§5) stained secondary antibodies, anti-rabbit Alexa-488 and anti-mouse (Cell Signaling Technology) for
(§6) 1 hour. After Hoechst 33342 (10 μg/mL) staining for 2 min, dishes were mounted in ProLong™ Gold
(§7) Antifade Mountant (Invitrogen™) and stored at 4°C in the dark before confocal laser-scanning by
(§8) Broadband Confocal Leica TCS SP5. The CLSM images were obtained with the following excitation
respectively. Cells were washed 3 times with PBS (200 μL/well) at intervals. […]

[2] = tested on: HeLa cells; assay: Labile iron pool (LIP) determination with calcein-AM in iron-overloaded HeLa cells, flow cytometry; assay type: cell-based, human; conditions: for Fluorescence intensity of calcein-AM (LIP level): 15 min, Fe(II) alone 0.63-0.64
Procedure: HeLa cells (10^6/mL) were loaded by incubation with 20 μM Fe(II) for 2 h at 37 °C. Subsequently, cells were collected by centrifugation (1000 rpm for 5 min) and incubated with 0.5 μM calcein-AM for 15 min at 37 °C in a D’hanks buffer of pH 7.4. Cells were then washed twice by D’hanks buffer (pH 7.4) and incubated with or without CAPE and its analogues. The fluorescence was monitored by both flow cytometry (BD FACS Caliber) and a CLSM (Leica TCS SP). The experiment was repeated three times.
Figure 3 Effect of CAPE and its analogues on the LIP level in iron-overloaded cells, as measured by flow cytometry (A–D). HeLa cells were pretreated with 20 μM Fe(II) for 2 h and then incubated with calcein-AM. After 15 min, cells were washed and incubated with or without CAPE and its analogues for 15 min. The fluorescence intensity of cells was measured by flow cytometry. Significant differences from the iron-overloaded group are marked with * p < 0.05, ** p < 0.01, and *** p < 0.001. The experiment was repeated three times.

[3] = tested on: plasmid pBR322 DNA; assay: Plasmid DNA strand breakage induced by Fe(III)–citrate/ascorbate/H2O2, agarose gel electrophoresis; assay type: biochemical; conditions: for Protective effect against iron-mediated DNA damage through inhibiting •OH generation, in words: isolated DNA, Fe(III) and Fe(II) systems, Figures S9–S12
Procedure: Plasmid DNA agarose gel electrophoresis was employed to investigate protective effect of CAPE and its analogues against DNA strand breakage induced by an iron-mediated system. For experimental procedure details, please refer to the Supplementary Materials.
Figure 4 Protective effect of CAPE and its analogues against Fe(III)–citrate–ascorbate–H2O2-induced DNA damage. […] The reaction mixture contained 20 μM Fe(III)–citrate, 10 μM ascorbate, and 200 μM H2O2, as well as the indicated concentrations of CAPE and its analogues. The experiments were repeated three times, and only typical images are presented. […]
(§9) The experiments were conducted via incubation of plasmid pBR322 DNA (5 μg/mL) at 37 °C for
(§10) 30 min in Chelex-treated HEPES buffer (100 mM, pH 7.4) with the iron-containing systems, in the
absence or presence of the indicated concentrations of CAPE and its analogues. […]

[4] = ESR spin-trapping (DMPO) of •OH generated by Fe(III)–citrate–ascorbate–H2O2; assay type: biochemical; conditions: 100 μM Fe(III)–citrate, 100 μM ascorbate, 1 mM H2O2
Procedure: The basic system used in this study consisted of Fe(III)/Fe(II), ascorbate, H2O2, and the spin trapping agent DMPO (100 mM) in 20 mM HEPES (pH 7.4) with or without CAPE and its analogues.
The reaction mixture contained 100 μM Fe(III)–citrate, 100 μM ascorbate, and 1 mM H2O2, as well as the indicated concentrations of CAPE and its analogues. The experiments were repeated three times, and only typical spectra are presented.
spectrometer parameters were as follows: scan range, 100 G; field set, 3470 G; time constant, 200 ms;
scan time, 100 s; modulation amplitude, 1.0 G; modulation frequency, 100 kHz; receiver gain,

[5] = Calcein fluorescence quenching by Fe(III)–citrate, competition by ligand; assay type: binding; conditions: 0.1 μM calcein, 100 μM Fe(III)–citrate, 100–500 μM compound
Procedure: In the presence of calcein, mixtures of CAPE and Fe(III)/Fe(II) with different concentrations in 20 mM HEPES (pH 7.4) were used for fluorescence detection (Ex: 488 nm; Em: 515 nm). Fluorescence spectra were recorded using a Cary Eclipse fluorescence spectrophotometer (Varian, Palo Alto, CA, USA).
Figure 7 Effect of CAPE and its analogues on the fluorescence intensity of calcein–Fe(III)–citrate. (A,B) the fluorescence quenching of calcein by Fe(III)–citrate diminished in a (CAPE/CA:Fe(III)) ratio-dependent manner. […] The reaction mixture contained 0.1 μM calcein, 100 μM Fe(III)–citrate, and indicated concentrations of CAPE or its analogues (100–500 μM). The experiments were repeated three times, and only typical spectra are presented.

[6] = 1-octanol/phosphate buffer partitioning, shake-flask method; assay type: physicochemical; conditions: 1-octanol / 100 mM phosphate buffer pH 7.4, shake-flask
[7] = Dissolved oxygen consumption by ascorbic acid/Fe(III)–citrate; assay type: biochemical; conditions: 100 μM Fe(III)-citrate, 1 mM ascorbate, ratio 5:1
Procedure: as §1, §2, §3, §4, §5, §6, §7, §8
respectively. Cells were washed 3 times with PBS (200 μL/well) at intervals.
as §9, §10
absence or presence of the indicated concentrations of CAPE and its analogues.
2.3 Electron spin resonance (ESR) spin-trapping studies
ESR spectra were recorded at room temperature in a Bruker ESR 300 spectrometer. Typical […]
The consumption of O2 was measured by Orion 3 dissolved oxygen meter (Thermo Scientific, […]
Corona Needle current was 3000 nA. The size of data points was recorded in 4 M format. […]

[8] = tested on: HeLa cells; assay: Labile iron pool (LIP) determination with calcein-AM in iron-overloaded HeLa cells, flow cytometry; assay type: cell-based, human; conditions: 500 μM compound alone, no iron
[9] = Cyclic voltammetry of Fe(III) chelated by ligand; assay type: physicochemical; conditions: 100 mM PB pH 7.4, SCE reference, 2 mV/s; Fe(III) alone approximately −0.65 V
Procedure: CV was performed in 100 mM PB (pH 7.4) on a Princeton Applied Research (VersaSTAT3) potentiostat with a Pt wire as the counter electrode, a saturated calomel electrode (SCE) as the reference electrode, and a glassy carbon electrode (5 mm in diameter) as the working electrode. The scan rate was 2 mV/s.

[10] = 20 μM Fe(III)–citrate, 10 μM ascorbate, 200 μM H2O2

Row | Compound | LogKow [6] | Reduction potential of Fe(III) chelated by compound [9] [V] | Inhibition of cellular DNA damage induced by iron overload (with H2O2), in words [1] | Fluorescence intensity of calcein-AM (LIP level) ([2]; 20 μM Fe(II) + 50 μM compound) | Fluorescence intensity of calcein-AM (LIP level) ([2]; 20 μM Fe(II) + 200 μM compound) | Fluorescence intensity of calcein-AM (LIP level) ([2]; 20 μM Fe(II) + 500 μM compound) | Effect on calcein fluorescence (LIP level), in words ([2]; iron-overloaded HeLa cells, 50–500 μM) | Protective effect against Fe(III)–citrate–ascorbate–H2O2-induced DNA damage, in words [3, 10] | Inhibitory effect against Fe(III)-citrate-Vc-H2O2 induced •OH generation, in words [4] | Inhibition of calcein fluorescence quenching by Fe(III)–citrate, in words [5] | Effect on O2 consumption induced by ascorbic acid/Fe(III)–citrate, in words [7] | Fluorescence intensity of calcein-AM (LIP level) [8] | Concentration that significantly inhibits cellular DNA damage induced by iron overload (with H2O2) [1] [µM] | Concentration that significantly regenerates calcein fluorescence (decreases LIP level) ([2]; iron-overloaded HeLa cells) [µM] | Protective effect against iron-mediated DNA damage through inhibiting •OH generation, in words [3] | Fluorescence intensity of γ-H2AX ([1]; Fe(II)-H2O2 + 50 μM compound) | Fluorescence intensity of γ-H2AX ([1]; Fe(II)-H2O2 + 100 μM compound) | Fluorescence intensity of γ-H2AX ([1]; Fe(II)-H2O2 + 200 μM compound) | Fluorescence intensity of γ-H2AX ([1]; Fe(II)-H2O2 + 500 μM compound) | Concentration range with the stated inhibition of Fe(III)-citrate-Vc-H2O2 induced DNA damage ([3]; 20 μM Fe(III)–citrate, 10 μM ascorbate, 200 μM H2O2, CAPE significantly, CA slightly) [µM]
1 | CCOC(=O)/C=C/c1ccc(O)c(OC)c1 [EF, ethyl ferulate] | 1.38 ± 0.02 |  | no significant inhibition | 0.65±0.03 Fold of Control | 0.62±0.02 Fold of Control | 0.61±0.02 Fold of Control | no effect | no significant protective effect | no inhibitory effect | no inhibitory effects | no significant effects | 0.99±0.01 Fold of Control |  |  |  |  |  |  |  | 
2 | c1cnc2c(c1)ccc1cccnc12 [OP, 1,10-phenanthroline, reference compound] |  |  | effective |  |  |  |  |  |  |  |  |  |  |  |  |  |  |  |  | 
3 | O=C(O)/C=C/c1ccc(O)c(O)c1 [CA, caffeic acid] |  | −0.76 |  | 0.63±0.02 Fold of Control | 0.64±0.01 Fold of Control | 0.70±0.02 Fold of Control |  | lower than CAPE; also recorded: slightly inhibited |  | weaker inhibition |  | 1.00±0.02 Fold of Control | 500 | 500 |  | 3.13±0.42 Fold of Control | 3.09±0.51 Fold of Control | 2.82±0.43 Fold of Control | 1.73±0.43 Fold of Control | 20 to 200

More lines, main results first:

Row | LogKow [6] | Reduction potential of Fe(III) chelated by compound [9] [V] | Compound | Inhibition of cellular DNA damage induced by iron overload (with H2O2), in words [1] | Fluorescence intensity of calcein-AM (LIP level) ([2]; 20 μM Fe(II) + 50 μM compound) | Fluorescence intensity of calcein-AM (LIP level) ([2]; 20 μM Fe(II) + 200 μM compound) | Fluorescence intensity of calcein-AM (LIP level) ([2]; 20 μM Fe(II) + 500 μM compound) | Effect on calcein fluorescence (LIP level), in words ([2]; iron-overloaded HeLa cells, 50–500 μM) | Protective effect against Fe(III)–citrate–ascorbate–H2O2-induced DNA damage, in words [3, 10] | Inhibitory effect against Fe(III)-citrate-Vc-H2O2 induced •OH generation, in words [4] | Inhibition of calcein fluorescence quenching by Fe(III)–citrate, in words [5] | Effect on O2 consumption induced by ascorbic acid/Fe(III)–citrate, in words [7] | Fluorescence intensity of calcein-AM (LIP level) [8] | Concentration that significantly inhibits cellular DNA damage induced by iron overload (with H2O2) [1] [µM] | Concentration that significantly regenerates calcein fluorescence (decreases LIP level) ([2]; iron-overloaded HeLa cells) [µM] | Protective effect against iron-mediated DNA damage through inhibiting •OH generation, in words [3] | Fluorescence intensity of γ-H2AX ([1]; Fe(II)-H2O2 + 50 μM compound) | Fluorescence intensity of γ-H2AX ([1]; Fe(II)-H2O2 + 100 μM compound) | Fluorescence intensity of γ-H2AX ([1]; Fe(II)-H2O2 + 200 μM compound) | Fluorescence intensity of γ-H2AX ([1]; Fe(II)-H2O2 + 500 μM compound) | Concentration range with the stated inhibition of Fe(III)-citrate-Vc-H2O2 induced DNA damage ([3]; 20 μM Fe(III)–citrate, 10 μM ascorbate, 200 μM H2O2, CAPE significantly, CA slightly) [µM]
4 | 1.27 ± 0.06 | −0.79 | COC(=O)/C=C/c1ccc(O)c(O)c1 [CAME, caffeic acid methyl ester] |  |  |  |  |  |  |  |  |  |  | 100 to 500 | 200 to 500 | weaker than CAPE |  |  |  |  | 
5 | 1.51 ± 0.03 | −0.99 | CCOC(=O)/C=C/c1ccc(O)c(O)c1 [CAEE, caffeic acid ethyl ester] |  |  |  |  |  |  |  |  |  |  | 50 to 500 | 50 to 500 | weaker than CAPE |  |  |  |  | 
